Experimental data: paper PMC4728505 (Marine Drugs, 2015)
*1 amine or outer side, *2 acyl side, *3 side chain or, on linkers, in order; H or OH if unused. Where a SMILES comes first, the peptide text is derived from it. Bridges are numbered along the chain shown (N, C = ends). [ ]: non-standard residue; d: D form. NMehTyr = CN[C@@H](CCc1ccc(O)cc1)C(=O)O; hTyr = N[C@@H](CCc1ccc(O)cc1)C(=O)O; NMeA = CN[C@@H](C)C(=O)O; CO = O=C([*:1])[*:2]

Tests used:
protein phosphatase 1 = target: T1, protein phosphatase 1 (Oryctolagus cuniculus, UniProt P62139); assay: biochemical; format: biochemical; settings: for PP1 inhibition (in words): acquired standards
T1 construct: purchased New England Biolabs

[1] = tested on: PP1 (from rabbit skeletal muscle); settings: cited from earlier work; for PP1 inhibition reported (in words): PP1 from rabbit skeletal muscle
carboxypeptidase A [2] = target: T2, carboxypeptidase A (Bos taurus, UniProt P00730); assay: Carboxypeptidase A inhibition assay; format: biochemical; settings: acquired standards
T2 construct: purchased Sigma-Aldrich C9268
T2 sequence (P00730 111-419): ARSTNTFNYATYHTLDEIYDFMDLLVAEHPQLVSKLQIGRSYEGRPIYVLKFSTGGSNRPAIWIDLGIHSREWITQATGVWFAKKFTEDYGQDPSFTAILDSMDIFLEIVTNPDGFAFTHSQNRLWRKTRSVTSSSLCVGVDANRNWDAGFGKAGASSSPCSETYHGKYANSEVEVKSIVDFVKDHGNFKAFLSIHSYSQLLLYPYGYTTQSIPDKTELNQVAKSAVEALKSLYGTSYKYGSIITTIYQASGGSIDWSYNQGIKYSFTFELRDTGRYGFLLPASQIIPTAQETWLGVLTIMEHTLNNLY
Source text: The following reagents used for enzymatic assays were purchased from Sigma-Aldrich: trypsin (product number T0303), thrombin bovine plasma (T4648), elastase (E0258), carboxypeptidase A (C9268), aprotinine (A6103), N-p-tosyl-Gly-Pro-Lys-p-nitroanilide acetate salt (T6140), N-Succinyl-Gly-Gly-Phe-p-nitroanilide (S1899), 4-(2-Aminoethyl) benzenesulfonyl fluoride hydrochloride—AEBSF (A8456), elastatinal (E0881), N-Succinyl-Ala-Ala-Ala-p-nitroanilide (S4760), carboxypeptidase inhibitor—CPI (C0297), p-nitrophenyl phosphate disodium salt hexahydrate—p-NPP (71768), albumin bovine—BSA (A4503) and DL-dithiothreitol DTT (D0632).
APs were assayed for bioactivity by protein phosphatase 1, carboxypeptidase A, trypsin, elastase and thrombin inhibition assays as described in Mazur-Marzec et al. 2015 [50].

carboxypeptidase A [3] = target: T2, carboxypeptidase A; parameters: method as in PMID 11000037; settings: read-out: CPA IC50 (converted); cited from earlier work

T1 sequence (P62139 whole entry): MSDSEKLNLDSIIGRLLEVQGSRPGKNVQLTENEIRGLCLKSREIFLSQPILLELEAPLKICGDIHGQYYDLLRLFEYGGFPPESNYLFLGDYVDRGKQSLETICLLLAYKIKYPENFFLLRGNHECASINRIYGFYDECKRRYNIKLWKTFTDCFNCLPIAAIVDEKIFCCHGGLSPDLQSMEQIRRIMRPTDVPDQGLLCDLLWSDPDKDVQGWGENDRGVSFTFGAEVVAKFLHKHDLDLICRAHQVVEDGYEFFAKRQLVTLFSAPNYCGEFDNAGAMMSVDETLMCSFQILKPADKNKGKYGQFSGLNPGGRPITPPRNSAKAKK

Row | Compound | PP1 inhibition (in words) (protein phosphatase 1) | PP1 inhibition reported (in words) [1] | also measured
1 | CC(C)C1NC(=O)C(NC(=O)NC(Cc2ccc(O)cc2)C(=O)O)CCCCNC(=O)C(Cc2ccccc2)NC(=O)C(C)N(C)C(=O)C(CCc2ccc(O)cc2)NC1=O (stereo not drawn) [Anabaenopeptin A, Tyr + CO[Lys + Val + Hty + MeAla + Phe]] | showed inhibition | inhibition | –
2 | CC(C)[C@@H]1NC(=O)[C@H](NC(=O)N[C@@H](CCCNC(=N)N)C(=O)O)CCCCNC(=O)[C@H](Cc2ccccc2)NC(=O)[C@H](C)N(C)C(=O)[C@H](CCc2ccc(O)cc2)NC1=O [Anabaenopeptin B] ({Arg-CO}-[dK]V[hTyr][NMeA]F; lactam 1-C) | showed inhibition | inhibition | –
3 | CC[C@H](C)[C@H](NC(=O)N[C@@H]1CCCCNC(=O)[C@H](Cc2ccccc2)NC(=O)[C@H](C)N(C)C(=O)[C@H](CCc2ccc(O)cc2)NC(=O)[C@H](C(C)C)NC1=O)C(=O)O [Anabaenopeptin J] ({Ile-CO}-[dK]V[hTyr][NMeA]F; lactam 1-C) | showed inhibition | – | Activity against CPA (in words) (carboxypeptidase A [2]): active
4 | CC[C@H](C)[C@@H]1NC(=O)[C@H](NC(=O)N[C@@H](CCCNC(=N)N)C(=O)O)CCCCNC(=O)[C@H](Cc2ccccc2)NC(=O)[C@H](CCc2ccc(O)cc2)N(C)C(=O)[C@H](CCc2ccc(O)cc2)NC1=O [Osc C] ({Arg-CO}-[dK]I[hTyr][NMehTyr]F; lactam 1-C) | – | inhibition | IC50 [1]: 900 nM
5 | CC[C@H](C)[C@@H]1NC(=O)[C@H](NC(=O)N[C@@H](Cc2ccc(O)cc2)C(=O)O)CCCCNC(=O)[C@H](Cc2ccccc2)NC(=O)[C@H](C)N(C)C(=O)[C@H](CCc2ccc(O)cc2)NC1=O [Oscillamide Y, Tyr + CO[Lys + Ile + Hty + MeAla + Phe]] ({Tyr-CO}-[dK]I[hTyr][NMeA]F; lactam 1-C) | showed inhibition | – | Activity against CPA (in words) (carboxypeptidase A [2]): active; IC50 (protein phosphatase 1): 72.3 nM; PP1 inhibition (in words) ([1]; at 100 μg/mL): no effect
6 | CC[C@H](C)[C@@H]1NC(=O)[C@H](NC(=O)N[C@@H](CCCNC(=N)N)C(=O)O)CCCCNC(=O)[C@H](Cc2ccccc2)NC(=O)[C@H](C)N(C)C(=O)[C@H](CCc2ccc(O)cc2)NC1=O [anabaenopeptin F] ({Arg-CO}-[dK]I[hTyr][NMeA]F; lactam 1-C) | – | inhibition | –
7 | CC[C@H](C)[C@@H]1NC(=O)[C@H](NC(=O)N[C@@H](CCCNC(=N)N)C(=O)O)CCCCNC(=O)[C@H]([C@@H](C)CC)NC(=O)[C@H](CCc2ccc(O)cc2)N(C)C(=O)[C@H](CCc2ccc(O)cc2)NC1=O [anabaenopeptin H] ({Arg-CO}-[dK]I[hTyr][NMehTyr]I; lactam 1-C) | – | – | IC50 (carboxypeptidase A [3]): 3.68 µM
8 | CSCC[C@@H]1NC(=O)[C@H](NC(=O)N[C@@H](CCCNC(=N)N)C(=O)O)CCCCNC(=O)[C@H](Cc2ccccc2)NC(=O)[C@H](C)N(C)C(=O)[C@H](CCc2ccc(O)cc2)NC1=O [oscillamide B] ({Arg-CO}-[dK]M[hTyr][NMeA]F; lactam 1-C) | – | inhibition | –
